From the supplement of paper PMC8967900

Tests used:
Assay in all cases: selective drug sensitivity score (sDSS, relative to normal bone marrow) (sDSS (score)); higher = more potent and effective on the cell line relative to normal bone marrow cells
Conditions in all cases: 72 h
MHH-CALL-4 = tested on: MHH-CALL-4
RPMI-8402 = tested on: RPMI-8402
697 = tested on: 697
COG-LL-332h = tested on: COG-LL-332h
KARPAS-45 = tested on: KARPAS-45
MOLT-16 = tested on: MOLT-16
PEER = tested on: PEER
MHH-CALL-2 = tested on: MHH-CALL-2
ALL-PO = tested on: ALL-PO
COG-LL-317 = tested on: COG-LL-317
KOPN-8 = tested on: KOPN-8
SUP-B15 = tested on: SUP-B15
PF-382 = tested on: PF-382
COG-LL-402h = tested on: COG-LL-402h
MOLT-4 = tested on: MOLT-4
CCRF-CEM = tested on: CCRF-CEM
NALM-16 = tested on: NALM-16
NALM-6 = tested on: NALM-6
TMD5 = tested on: TMD5
REH = tested on: REH
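Note: ALL cell lines in 384-well plates, five doses spanning 10,000-fold, each plate scaled between vehicle and 100 µmol/L benzalkonium chloride controls, sDSS an adapted area-under-curve metric.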

Row | Compound | selective drug sensitivity score (MHH-CALL-4) | selective drug sensitivity score (RPMI-8402) | selective drug sensitivity score 697 | selective drug sensitivity score (COG-LL-332h) | selective drug sensitivity score (KARPAS-45) | selective drug sensitivity score (MOLT-16) | selective drug sensitivity score (PEER) | selective drug sensitivity score (MHH-CALL-2) | selective drug sensitivity score (ALL-PO) | selective drug sensitivity score (COG-LL-317) | selective drug sensitivity score (KOPN-8) | selective drug sensitivity score (SUP-B15) | selective drug sensitivity score (PF-382) | selective drug sensitivity score (COG-LL-402h) | selective drug sensitivity score (MOLT-4) | selective drug sensitivity score (CCRF-CEM) | selective drug sensitivity score (NALM-16) | selective drug sensitivity score (NALM-6) | selective drug sensitivity score (TMD5) | selective drug sensitivity score (REH)
1 | CCCCCOC(=O)Nc1nc(=O)n([C@@H]2O[C@H](C)[C@@H](O)[C@H]2O)cc1F [Capecitabine] (top concentration 10000 nM) | 0.04 | -0.06 | -0.06 | -0.06 | -0.06 | -0.06 | -0.06 | 1.04 | -0.06 | -0.06 | -0.06 | -0.06 | -0.06 | -0.06 | -0.06 | -0.06 | -0.06 | -0.06 | -0.06 | -0.06
2 | Nc1nc(Cl)nc2c1ncn2[C@H]1C[C@H](O)[C@@H](CO)O1 [Cladribine] (top concentration 1000 nM) | 4.06 | -4.74 | 10.5 | 3.26 | -15.7 | 1.06 | -12.2 | 4.66 | 8.66 | 1.06 | 9.66 | 9.36 | -5.54 | 3.66 | -7.74 | 5.16 | -8.24 | 0.46 | -16 | -2.64
3 | CCN(CC)CCOc1ccc(/C(=C(/Cl)c2ccccc2)c2ccccc2)cc1 [Clomifene] (top concentration 10000 nM) | 2.72 | 0.32 | 0.92 | 0.42 | 1.22 | 0.92 | 1.02 | 4.12 | 0.62 | 0.22 | 8.92 | 0.12 | 0.72 | -0.88 | -1.08 | -0.08 | -2.88 | -0.28 | 1.32 | 0.72
4 | CO[C@@H](C(=O)N1Cc2[nH]nc(NC(=O)c3ccc(N4CCN(C)CC4)cc3)c2C1)c1ccccc1 [Danusertib] (top concentration 10000 nM) | 7.14 | 6.54 | 21.4 | 17.2 | 8.94 | 22.4 | 21.6 | 11.7 | 13 | 19.4 | 19 | 18.6 | 6.24 | 11.5 | 14.5 | 18.5 | -0.96 | 12.5 | 14.5 | 16.5
5 | CC[C@@](C)(Nc1ccnc(-c2c[nH]c3ncccc23)n1)C(=O)NCC(F)(F)F [Decernotinib] (top concentration 10000 nM) | -3.94 | -3.44 | -1.54 | -3.34 | -3.94 | -3.94 | -3.84 | -3.94 | -3.94 | -3.94 | -3.94 | -3.94 | -3.94 | -3.94 | -3.94 | -3.94 | -3.94 | -3.94 | -1.74 | -3.94
6 | CN1CCN(c2ccc3nc(-c4c(N)c5c(F)cccc5[nH]c4=O)[nH]c3c2)CC1 [Dovitinib] (top concentration 10000 nM) | -0.14 | -0.14 | 1.56 | 0.36 | 0.26 | -0.14 | 0.66 | -0.14 | 6.86 | -0.04 | -0.14 | 0.26 | -0.14 | 2.96 | -0.14 | 0.26 | 0.96 | -0.14 | -0.14 | -0.14
7 | CC(C)(O)CNc1nc(Nc2ccnc(C(F)(F)F)c2)nc(-c2cccc(C(F)(F)F)n2)n1 [Enasidenib] (top concentration 10000 nM) | -0.8 | 0.4 | -0.2 | -0.5 | 4.1 | 0.1 | 0.6 | -0.4 | 2.7 | 0.8 | 1.2 | -0.3 | -0.1 | -0.7 | -0.8 | -0.1 | -0.8 | -0.8 | -0.8 | -0.8
8 | CN1CCN(c2ccc(C(=O)Nc3n[nH]c4ccc(Cc5cc(F)cc(F)c5)cc34)c(NC3CCOCC3)c2)CC1 [Entrectinib] (top concentration 1000 nM) | 0.4 | -1.2 | -1.2 | -0.5 | -0.9 | -1.2 | 0.9 | -0.8 | 3.3 | -0.7 | 0.1 | -0.7 | -1.2 | -0.7 | -1.2 | -1.2 | 0.5 | -1.2 | -0.5 | -1.2
9 | CNC(=O)c1ccc(N2C(=S)N(c3ccc(C#N)c(C(F)(F)F)c3)C(=O)C2(C)C)cc1F [Enzalutamide] (top concentration 10000 nM) | -0.72 | 0.48 | 1.48 | -0.12 | -0.82 | 1.48 | 0.48 | -0.12 | 0.88 | 1.18 | 5.18 | 3.38 | 0.18 | 0.68 | -0.82 | -0.52 | -0.82 | 0.68 | -0.82 | -0.82
10 | Cn1cc(C2=C(c3cn(C4CCN(Cc5ccccn5)CC4)c4ccccc34)C(=O)NC2=O)c2ccccc21 [Enzastaurin] (top concentration 10000 nM) | -0.04 | 5.86 | 5.76 | 6.16 | 4.86 | 4.66 | 6.66 | 0.66 | 5.96 | 7.26 | 2.46 | 4.86 | 3.36 | 5.16 | 6.26 | 5.06 | 5.56 | 5.26 | 0.06 | 3.66
11 | NS(=O)(=O)NCCNc1nonc1/C(=N/O)Nc1ccc(F)c(Br)c1 [Epacadostat] (top concentration 10000 nM) | 4.24 | 0.54 | -0.26 | -0.26 | -0.26 | -0.06 | 0.14 | 1.64 | -0.26 | 1.14 | 2.44 | -0.26 | -0.26 | -0.26 | -0.16 | -0.26 | -0.26 | -0.26 | 4.44 | 3.34
12 | CCOc1ccccc1-n1c(C(C)N2CCN(C(=O)COc3ccc(Cl)cc3)CC2)nc2ccccc2c1=O (stereo not given) [Erastin] (top concentration 10000 nM) | 6.44 | -5.96 | 20.1 | 12.7 | 8.24 | 23 | 7.94 | 6.34 | 4.54 | 11.2 | 18.8 | 14 | 21 | 7.64 | -2.26 | 9.34 | 9.34 | 7.44 | 7.04 | 7.04
13 | COc1cc(OC)cc(N(CCNC(C)C)c2ccc3ncc(-c4cnn(C)c4)nc3c2)c1 [Erdafitinib] (top concentration 1000 nM) | -0.46 | -0.56 | -0.06 | -0.46 | -0.06 | -0.56 | -0.36 | 8.24 | -0.46 | -0.56 | -0.56 | -0.46 | -0.56 | 0.04 | -0.56 | -0.56 | -0.56 | -0.56 | 4.74 | 0.44
14 | CC(C)(C)NC(=O)[C@H]1CC[C@H]2[C@@H]3CC[C@H]4NC(=O)C=C[C@]4(C)[C@H]3CC[C@]12C [Finasteride] (top concentration 10000 nM) | 1.88 | -0.52 | -0.52 | -0.52 | -0.52 | -0.52 | -0.52 | 0.98 | 0.48 | -0.52 | 8.18 | 3.08 | -0.52 | -0.52 | -0.52 | -0.52 | -0.52 | -0.52 | 0.58 | -0.52
15 | O=c1[nH]c(=O)n([C@H]2C[C@H](O)[C@@H](CO)O2)cc1F [Floxuridine] (top concentration 10000 nM) | 22.6 | 26 | 35.8 | 26.1 | -1.38 | 32.8 | 14.2 | 24.2 | 36.5 | 32.4 | 37.3 | 42.4 | 9.82 | 28.2 | 26.6 | 31.1 | 10.2 | 24.2 | -1.98 | 25.8
16 | CNc1nc(Nc2cn(C(C)(C)C#N)nc2C)ncc1C(F)(F)F [GNE-0877] (top concentration 1000 nM) | 0 | 0 | 0 | 0 | 0 | 0 | 0 | 0 | 0 | 0 | 0 | 0 | 0 | 0 | 0 | 0 | 0 | 0 | 0 | 0.8
17 | CCCc1cc(C)[nH]c(=O)c1CNC(=O)c1cc(-c2ccnc(N3CCN(C)CC3)c2)cc2c1cnn2C(C)C [GSK343] (top concentration 1000 nM) | 0 | 0 | 0 | 0 | 0 | 0 | 0 | 0 | 0.1 | 0 | 0 | 0 | 0 | 0 | 0 | 0 | 0 | 0 | 0 | 0
18 | O=C(O)c1ccc(O)c2ncccc12 [IOX-1] (top concentration 100000 nM) | 2.24 | 2.64 | 5.64 | 7.54 | 4.04 | 3.74 | 4.34 | 3.64 | 3.74 | 4.54 | 2.84 | 4.24 | 4.44 | 3.64 | 3.34 | 3.74 | 4.64 | 3.74 | 0.64 | 2.54
